{"source": "ChEMBL document CHEMBL1201862", "about": "“PubChem BioAssay data set” (2004)", "key": {"[1]": {"target": "Dual specificity tyrosine-phosphorylation-regulated kinase 1A (Rattus norvegicus, UniProt Q63470)", "assay_type": "biochemical, Homo sapiens"}, "[2]": {"target": "T1, Tyrosine-protein phosphatase non-receptor type 7 (Homo sapiens, UniProt P35236)", "T1 sequence (P35236 whole entry)": "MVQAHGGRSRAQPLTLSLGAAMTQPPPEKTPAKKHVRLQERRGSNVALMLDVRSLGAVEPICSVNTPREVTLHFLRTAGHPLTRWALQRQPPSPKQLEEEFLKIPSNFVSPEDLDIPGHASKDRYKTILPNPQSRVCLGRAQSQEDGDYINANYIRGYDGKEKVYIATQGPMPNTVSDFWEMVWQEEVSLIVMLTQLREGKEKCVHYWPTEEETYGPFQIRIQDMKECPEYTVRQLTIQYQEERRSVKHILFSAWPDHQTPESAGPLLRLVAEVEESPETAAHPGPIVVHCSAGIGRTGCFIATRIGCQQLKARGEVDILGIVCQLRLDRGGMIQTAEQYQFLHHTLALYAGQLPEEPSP", "assay_type": "functional"}, "[3]": {"target": "Glyceraldehyde-3-phosphate dehydrogenase (Homo sapiens, UniProt P04406)", "sequence (P04406 whole entry)": "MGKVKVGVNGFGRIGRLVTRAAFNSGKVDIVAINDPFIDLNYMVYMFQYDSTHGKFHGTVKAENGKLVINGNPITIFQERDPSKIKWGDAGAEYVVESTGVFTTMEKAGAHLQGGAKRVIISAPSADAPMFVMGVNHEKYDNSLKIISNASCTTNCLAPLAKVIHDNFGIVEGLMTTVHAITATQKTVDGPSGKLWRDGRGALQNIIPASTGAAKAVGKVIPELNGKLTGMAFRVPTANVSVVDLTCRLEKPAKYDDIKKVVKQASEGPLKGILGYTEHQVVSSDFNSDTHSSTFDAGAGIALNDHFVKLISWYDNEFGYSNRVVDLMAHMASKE"}, "[4]": {"target": "T2, Dual specificity protein phosphatase 6 (Rattus norvegicus, UniProt Q64346)", "T2 sequence (Q64346 whole entry)": "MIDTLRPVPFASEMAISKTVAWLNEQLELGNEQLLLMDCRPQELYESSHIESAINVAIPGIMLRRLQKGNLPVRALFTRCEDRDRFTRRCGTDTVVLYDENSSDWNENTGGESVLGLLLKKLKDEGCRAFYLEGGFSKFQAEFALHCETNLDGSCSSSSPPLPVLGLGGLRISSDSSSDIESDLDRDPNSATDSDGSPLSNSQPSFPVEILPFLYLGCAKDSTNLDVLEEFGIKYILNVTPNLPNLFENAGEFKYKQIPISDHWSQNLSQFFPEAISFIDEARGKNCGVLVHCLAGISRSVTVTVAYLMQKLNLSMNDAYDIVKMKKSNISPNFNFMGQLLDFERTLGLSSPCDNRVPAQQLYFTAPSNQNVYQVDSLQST"}, "[5]": {"target": "T2, Dual specificity protein phosphatase 6", "assay_type": "functional"}, "ORF 73": {"target": "ORF 73 (Human herpesvirus 8, UniProt O40947)", "sequence (O40947 whole entry)": "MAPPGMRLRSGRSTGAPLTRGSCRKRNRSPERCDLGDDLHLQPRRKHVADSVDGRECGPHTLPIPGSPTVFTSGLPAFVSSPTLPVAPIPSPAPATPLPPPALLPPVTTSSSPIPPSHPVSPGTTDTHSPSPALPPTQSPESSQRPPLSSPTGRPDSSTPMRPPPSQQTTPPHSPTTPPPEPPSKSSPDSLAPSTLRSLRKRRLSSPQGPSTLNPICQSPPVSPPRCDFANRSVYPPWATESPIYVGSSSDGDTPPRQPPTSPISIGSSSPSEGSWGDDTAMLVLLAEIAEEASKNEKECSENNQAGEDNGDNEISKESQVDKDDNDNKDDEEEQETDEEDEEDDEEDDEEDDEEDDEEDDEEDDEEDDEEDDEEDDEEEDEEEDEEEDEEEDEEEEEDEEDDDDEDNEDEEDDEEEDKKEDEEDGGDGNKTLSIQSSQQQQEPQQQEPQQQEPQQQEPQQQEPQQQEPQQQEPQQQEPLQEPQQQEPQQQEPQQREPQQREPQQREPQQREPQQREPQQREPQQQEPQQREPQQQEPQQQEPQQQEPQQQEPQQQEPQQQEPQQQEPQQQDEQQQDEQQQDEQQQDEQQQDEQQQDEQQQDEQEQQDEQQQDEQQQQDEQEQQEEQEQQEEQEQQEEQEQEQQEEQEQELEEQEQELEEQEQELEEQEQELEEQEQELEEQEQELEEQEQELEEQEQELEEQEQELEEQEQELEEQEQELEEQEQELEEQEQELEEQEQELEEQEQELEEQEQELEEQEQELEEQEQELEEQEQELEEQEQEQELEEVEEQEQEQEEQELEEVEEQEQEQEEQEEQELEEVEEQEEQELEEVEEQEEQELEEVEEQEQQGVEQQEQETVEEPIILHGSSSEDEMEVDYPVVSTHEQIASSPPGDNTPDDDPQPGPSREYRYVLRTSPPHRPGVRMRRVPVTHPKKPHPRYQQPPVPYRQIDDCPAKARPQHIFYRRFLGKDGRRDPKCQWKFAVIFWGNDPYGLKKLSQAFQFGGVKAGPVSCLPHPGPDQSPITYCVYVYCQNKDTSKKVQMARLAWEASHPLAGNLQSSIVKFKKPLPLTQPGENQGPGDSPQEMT", "assay": "inhibitors of C-LANA binding to LBS DNA, dose response, biochemical, fluorescence polarization, cherry-picked samples (AID 504725);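 note: fluorescence polarization of a labeled DNA duplex reporting LANA DNA binding; potency is for inhibitors that block LANA binding to the DNA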", "set-up": "species or system Human gammaherpesvirus 8"}, "Keap1/Nrf2": {"target": "Keap1/Nrf2 (Homo sapiens, UniProt Q14145)", "sequence (Q16236 whole entry)": "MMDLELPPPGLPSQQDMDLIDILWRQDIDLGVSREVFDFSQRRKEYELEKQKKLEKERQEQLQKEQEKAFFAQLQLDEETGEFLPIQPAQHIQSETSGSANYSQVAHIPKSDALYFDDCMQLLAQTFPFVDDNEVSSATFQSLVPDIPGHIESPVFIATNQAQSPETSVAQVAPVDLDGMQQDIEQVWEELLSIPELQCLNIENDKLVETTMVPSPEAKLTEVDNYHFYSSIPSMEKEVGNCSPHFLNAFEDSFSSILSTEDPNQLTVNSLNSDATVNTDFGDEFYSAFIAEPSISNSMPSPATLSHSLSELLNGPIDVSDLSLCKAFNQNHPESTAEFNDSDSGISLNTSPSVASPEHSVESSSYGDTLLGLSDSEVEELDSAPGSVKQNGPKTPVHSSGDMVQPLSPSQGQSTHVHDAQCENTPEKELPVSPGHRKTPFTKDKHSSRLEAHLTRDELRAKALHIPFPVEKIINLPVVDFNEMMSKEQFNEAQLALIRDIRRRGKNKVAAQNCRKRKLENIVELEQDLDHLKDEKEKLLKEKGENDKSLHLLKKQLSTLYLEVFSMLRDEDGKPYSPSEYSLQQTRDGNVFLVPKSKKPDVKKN", "sequence (Q14145 whole entry)": "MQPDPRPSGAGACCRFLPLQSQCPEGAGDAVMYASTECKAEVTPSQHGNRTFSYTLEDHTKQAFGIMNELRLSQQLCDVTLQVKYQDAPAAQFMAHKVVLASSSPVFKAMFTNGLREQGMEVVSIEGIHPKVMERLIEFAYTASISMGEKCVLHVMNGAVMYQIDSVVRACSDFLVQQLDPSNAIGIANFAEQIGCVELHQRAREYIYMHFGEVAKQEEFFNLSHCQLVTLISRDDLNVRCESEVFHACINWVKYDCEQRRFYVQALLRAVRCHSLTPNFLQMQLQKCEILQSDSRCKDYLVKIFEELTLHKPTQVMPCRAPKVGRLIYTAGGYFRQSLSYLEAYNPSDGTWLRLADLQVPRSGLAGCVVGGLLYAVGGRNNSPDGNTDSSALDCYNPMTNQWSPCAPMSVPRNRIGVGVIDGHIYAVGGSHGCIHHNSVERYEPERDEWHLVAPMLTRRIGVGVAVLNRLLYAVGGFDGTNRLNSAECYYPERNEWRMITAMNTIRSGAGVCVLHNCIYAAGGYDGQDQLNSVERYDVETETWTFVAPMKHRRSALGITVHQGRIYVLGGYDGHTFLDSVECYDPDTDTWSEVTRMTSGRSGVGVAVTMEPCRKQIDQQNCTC", "assay": "Keap1-Nrf2 protein-protein interaction inhibitors, dose response, biochemical, fluorescence polarization, cherry-picked samples (AID 588683)"}, "[6]": {"assay": "insulin promoter down-regulators in MIN6 cells, imaging, high-content screening, mouse beta cells (AID 1628)", "assay_type": "functional"}, "[7]": {"assay": "cytotoxicity in MIN6 insulinoma cells, dose response, cytotoxicity control, cell-based, mouse insulinoma (AID 2122);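 note: confirmatory high-throughput counterscreen run to flag cytotoxic compounds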", "assay_type": "functional"}, "[8]": {"assay": "inhibitors of intracellular T. cruzi replication, confirmation, NIH3T3 host cells, beta-gal luminescence (AID 2044);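 note: luminescent beta-galactosidase reporter signal from transgenic T. cruzi replicating inside host cells; inhibitors lower the luminescence signal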", "assay_type": "functional, cell-based"}, "[9]": {"assay": "cytotoxicity toward NIH3T3 fibroblasts, dose response, counter-screen, cell-based, ATP luminescence, mouse fibroblasts (AID 2010);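 note: cells exposed to compound for about 90 hours before reading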", "assay_type": "functional"}, "[10]": {"assay": "Luminescence Cell-Based Dose Retest to Confirm Inhibitors of Cancer Stem Cells. [Related pubchem assays (depositor defined):AID2717, AID2721]", "assay_type": "functional", "conditions": "Homo sapiens"}, "[11]": {"assay": "cytotoxicity in HMLE control line with eGFP shRNA, dose response, counter-screen for HMLE_sh_ECad selective toxicity project, cell-based, HMLE_sh_eGFP, luminescence (AID 463074);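 note: HMLE human mammary epithelial cells expressing control shRNA against eGFP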", "assay_type": "functional, Homo sapiens"}, "[12]": {"target": "T3, Calpain-2 catalytic subunit (Sus scrofa, UniProt P43367)", "T3 sequence (P43367 whole entry)": "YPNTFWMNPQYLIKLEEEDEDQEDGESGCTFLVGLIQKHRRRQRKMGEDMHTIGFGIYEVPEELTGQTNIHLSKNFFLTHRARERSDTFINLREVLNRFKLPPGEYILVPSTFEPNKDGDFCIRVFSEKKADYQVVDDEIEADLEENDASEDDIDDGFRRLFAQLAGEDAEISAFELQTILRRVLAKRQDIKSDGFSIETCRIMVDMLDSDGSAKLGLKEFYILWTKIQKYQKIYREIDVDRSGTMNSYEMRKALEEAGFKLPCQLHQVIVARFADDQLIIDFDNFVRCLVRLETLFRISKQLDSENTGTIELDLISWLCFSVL", "assay": "pig calpain II inhibitor potency, dose response, biochemical, fluorogenic peptide substrate (AID 1420)", "assay_type": "functional"}, "[13]": {"target": "Luciferin 4-monooxygenase (Photuris pensylvanica, UniProt Q27757)", "sequence (Q27757 whole entry)": "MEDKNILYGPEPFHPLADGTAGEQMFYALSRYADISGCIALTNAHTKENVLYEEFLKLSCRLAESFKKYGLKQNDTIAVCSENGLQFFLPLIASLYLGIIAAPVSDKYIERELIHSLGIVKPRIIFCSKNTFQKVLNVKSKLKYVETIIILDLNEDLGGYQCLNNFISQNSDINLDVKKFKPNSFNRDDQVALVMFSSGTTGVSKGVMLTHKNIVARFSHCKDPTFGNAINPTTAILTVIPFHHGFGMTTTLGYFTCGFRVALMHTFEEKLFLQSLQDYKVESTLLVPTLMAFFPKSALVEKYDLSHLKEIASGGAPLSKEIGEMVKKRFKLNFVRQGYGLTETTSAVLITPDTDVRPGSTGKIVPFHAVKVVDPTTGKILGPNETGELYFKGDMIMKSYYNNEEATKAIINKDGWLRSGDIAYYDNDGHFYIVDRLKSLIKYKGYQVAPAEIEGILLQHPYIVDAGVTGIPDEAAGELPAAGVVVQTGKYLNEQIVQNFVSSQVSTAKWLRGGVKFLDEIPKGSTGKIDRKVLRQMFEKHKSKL", "assay": "firefly luciferase enzyme inhibitors, dose response, counter-screen for HSF-1 reporter inhibitor project, biochemical, Cell Titer Glo, luminescence, cherry-picks (AID 588847)"}}, "note": "Active and inactive are the calls of the source.", "data": [{"smiles": "COc1ccc2cc3cc(C(=O)NCCN4CCN(Cc5ccccc5)CC4)oc3nc2c1", "values": [{"measurement": "AC50", "setting": "[1]", "value": "1.51 µM (active)"}]}, {"smiles": "CCCCCCCCC#CC#CCCCC(=O)O", "values": [{"measurement": "IC50", "setting": "[2]", "value": "96.2 µM (not active)"}, {"measurement": "IC50", "setting": "[3]", "value": "> 100 µM (not active)"}, {"measurement": "IC50", "setting": "[4]", "value": "> 100 µM (inactive)"}, {"measurement": "IC50", "setting": "[5]", "value": "> 100 µM (inactive)"}]}, {"smiles": "CCc1ccc[n+](-c2[n-]c(=O)sc2C=NNC(=S)Nc2ccccc2)c1", "values": [{"measurement": "AC50", "setting": "ORF 73", "value": "10.1 µM (active)"}, {"measurement": "AC50", "setting": "Keap1/Nrf2", "value": "13.6 µM (active)"}]}, {"smiles": "CN1/C(=C\\C(=O)COc2ccc3c(c2)OCO3)C(C)(C)c2ccccc21", "values": [{"measurement": "IC50", "setting": "[6]", "value": "1.48 µM (active)"}, {"measurement": "IC50", "setting": "[7]", "value": "0.768 µM (active)"}, {"measurement": "EC50", "setting": "[8]", "value": "2.75 µM (active)"}, {"measurement": "EC50", "setting": "[9]", "value": "> 60 µM (not active)"}, {"measurement": "AC50", "setting": "[10]", "value": "4.1 µM (active)"}, {"measurement": "AC50", "setting": "[11]", "value": "23.4 µM (active)"}]}, {"smiles": "Cc1nn(-c2cccc(C(F)(F)F)c2)c(Cl)c1/C=N/Nc1cccc(C(=O)O)c1", "values": [{"measurement": "IC50", "setting": "[12]", "value": "11.4 µM (not active)"}, {"measurement": "AC50", "setting": "[13]", "value": "> 52 µM (inactive)"}]}]}
